The target of test [1] is T1, 3-OST-3 (Homo sapiens, UniProt Q9Y663).
T1 construct: gene HS3ST3A1; purified enzyme; two molecules in the asymmetric unit
T1 sequence (Q9Y663 1-406): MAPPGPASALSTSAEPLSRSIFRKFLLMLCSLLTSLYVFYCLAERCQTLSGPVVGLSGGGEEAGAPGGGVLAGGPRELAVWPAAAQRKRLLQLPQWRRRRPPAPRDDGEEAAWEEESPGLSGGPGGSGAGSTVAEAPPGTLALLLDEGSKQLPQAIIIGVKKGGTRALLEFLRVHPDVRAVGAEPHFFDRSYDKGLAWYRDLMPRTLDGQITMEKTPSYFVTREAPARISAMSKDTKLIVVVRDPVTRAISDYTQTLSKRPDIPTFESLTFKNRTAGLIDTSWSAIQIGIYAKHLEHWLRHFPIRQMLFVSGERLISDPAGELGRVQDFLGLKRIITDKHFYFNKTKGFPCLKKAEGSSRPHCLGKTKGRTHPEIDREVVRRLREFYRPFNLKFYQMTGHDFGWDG
The test is described as follows: isothermal titration calorimetry. It counts as binding. In general terms: ITC needs no label: the signal is the heat of the interaction.

Test [2] concerns the target T1, 3-OST-3. The test is described as follows: inhibition of sulfotransferase activity. It counts as biochemical.
The target of test [3] is T1, 3-OST-3. Kind of test: crystal structure of ternary complex, […] Å. The format is binding. To be noted: with PAP; sodium ion at saccharides f and g.

A word on the Kd: it is the constant that tells how readily two partners part at equilibrium. A higher Kd goes with weaker binding. What is called IC50 is the midpoint of a concentration-inhibition curve. The low end stands for inhibition by little substance, the high end for a need for much substance.

Compound `CC(=O)N[C@H]1[C@@H](O[C@H]2[C@H](O)[C@@H](O)[C@H](O[C@H]3[C@H](O)[C@@H](NS(=O)(=O)O)[C@@H](O[C@H]4[C@H](O)[C@@H](OS(=O)(=O)O)[C@H](O[C@H]5[C@H](O)[C@@H](NS(=O)(=O)O)[C@@H](O[C@H]6[C@H](O)[C@@H](OS(=O)(=O)O)[C@H](O[C@H]7[C@H](O)[C@@H](NS(=O)(=O)O)[C@@H](O[C@H]8[C@H](O)[C@@H](O)[C@H](Oc9ccc([N+](=O)[O-])cc9)O[C@@H]8C(=O)O)O[C@@H]7COS(=O)(=O)O)O[C@H]6C(=O)O)O[C@@H]5COS(=O)(=O)O)O[C@H]4C(=O)O)O[C@@H]3COS(=O)(=O)O)O[C@@H]2C(=O)O)O[C@H](COS(=O)(=O)O)[C@@H](O)[C@@H]1O` [8-mer 3] showed a Kd in test [1] of 10 µM. In test [2] (substrate inhibition, compound is itself slowly sulfated), this compound gave an IC50 of 0.15 µM.
In test [1], `CC(=O)N[C@H]1[C@@H](O[C@H]2[C@H](O)[C@@H](O)[C@H](O[C@H]3[C@H](O)[C@@H](NS(=O)(=O)O)[C@@H](O[C@H]4[C@H](O)[C@@H](OS(=O)(=O)O)[C@H](O[C@H]5[C@H](OS(=O)(=O)O)[C@@H](NS(=O)(=O)O)[C@@H](O[C@H]6[C@H](O)[C@@H](OS(=O)(=O)O)[C@H](O[C@H]7[C@H](O)[C@@H](NS(=O)(=O)O)[C@@H](O[C@H]8[C@H](O)[C@@H](O)[C@H](Oc9ccc([N+](=O)[O-])cc9)O[C@@H]8C(=O)O)O[C@@H]7CO)O[C@H]6C(=O)O)O[C@@H]5CO)O[C@H]4C(=O)O)O[C@@H]3CO)O[C@@H]2C(=O)O)O[C@H](CO)[C@@H](O)[C@@H]1O` [8-mer 2] registered a Kd of 74 µM. This compound yielded an IC50 in test [2] (product inhibition, 8-mer 1 sulfation) of around 1 µM.
On to `CC(=O)N[C@H]1[C@@H](O[C@H]2[C@H](O)[C@@H](O)[C@H](O[C@H]3[C@H](O)[C@@H](NS(=O)(=O)O)[C@@H](O[C@H]4[C@H](O)[C@@H](OS(=O)(=O)O)[C@H](O[C@H]5[C@H](O)[C@@H](NS(=O)(=O)O)[C@@H](O[C@H]6[C@H](O)[C@@H](OS(=O)(=O)O)[C@H](O[C@H]7[C@H](O)[C@@H](NS(=O)(=O)O)[C@@H](O[C@H]8[C@H](O)[C@@H](O)[C@H](Oc9ccc([N+](=O)[O-])cc9)O[C@@H]8C(=O)O)O[C@@H]7CO)O[C@H]6C(=O)O)O[C@@H]5CO)O[C@H]4C(=O)O)O[C@@H]3CO)O[C@@H]2C(=O)O)O[C@H](CO)[C@@H](O)[C@@H]1O` [8-mer 1], for which, in test [3], the “crystal structure of ternary complex, 2.34 Å” value is given as “crystal structures of 3-OST-3 in the presence of PAP, the sulfo donor product analog”.
`CC(=O)N[C@H]1[C@@H](O[C@H]2[C@H](O)[C@@H](O)[C@H](O[C@H]3[C@H](O)[C@@H](NS(=O)(=O)O)[C@@H](O[C@H]4[C@H](O)[C@@H](OS(=O)(=O)O)[C@H](O[C@H]5[C@H](OS(=O)(=O)O)[C@@H](NS(=O)(=O)O)[C@@H](O[C@H]6[C@H](O)[C@@H](OS(=O)(=O)O)[C@H](O[C@H]7[C@H](O)[C@@H](NS(=O)(=O)O)[C@@H](O[C@H]8[C@H](O)[C@@H](O)[C@H](Oc9ccc([N+](=O)[O-])cc9)O[C@@H]8C(=O)O)O[C@@H]7COS(=O)(=O)O)O[C@H]6C(=O)O)O[C@@H]5COS(=O)(=O)O)O[C@H]4C(=O)O)O[C@@H]3COS(=O)(=O)O)O[C@@H]2C(=O)O)O[C@H](COS(=O)(=O)O)[C@@H](O)[C@@H]1O` [8-mer 4] registered a Kd in test [1] of 4.7 µM. In test [2] (product inhibition), this compound returned an IC50 of 0.012 µM.

The values are drawn from PMC8341778, “Deciphering the substrate recognition mechanisms of the heparan sulfate 3-O-sulfotransferase-3” (RSC Chemical Biology, 2021).
